# Results from US20180208920A1, “MOLECULAR MACHINES” (Commonwealth Scientific and Industrial Research Organisation, priority 2015, published 2018).
# T1: EcG3PD2 (Escherichia coli, UniProt P0A6S7)
# T1 construct: His tag; made in house; host or cells: E. coli BL21AI or BL21DE3*
# T1 sequence (P0A6S7 1-339): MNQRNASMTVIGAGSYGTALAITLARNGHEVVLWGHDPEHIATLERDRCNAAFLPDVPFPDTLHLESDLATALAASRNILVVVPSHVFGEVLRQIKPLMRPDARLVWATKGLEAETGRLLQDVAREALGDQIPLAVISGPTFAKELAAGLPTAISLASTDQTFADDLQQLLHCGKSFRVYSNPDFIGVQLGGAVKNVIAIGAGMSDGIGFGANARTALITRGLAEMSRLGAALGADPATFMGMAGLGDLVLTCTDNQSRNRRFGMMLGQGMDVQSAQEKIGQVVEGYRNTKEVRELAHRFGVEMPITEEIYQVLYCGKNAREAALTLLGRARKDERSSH
# B1: EcG3PD2 (Escherichia coli K-12) (protein)
# chain: T1 sequence (P0A6S7 1-339)
# notes: His tag; made in house; host or cells: E. coli BL21AI or BL21DE3*
# Assays:
# [1] = test system: CaNOX::AaE2; format: biochemical, Alicyclobacillus acidophilus; conditions: after 5 min incubation with inhibitor on ice
# [2] = test system: EcG3PD::CaNOX::AaE2 (TriF2); format: biochemical, Alicyclobacillus acidophilus; conditions: after 5 min incubation with inhibitor on ice
# [3] = Batch reactions converting glycerol to G3P and DHAP; format: biochemical
# Description: Reactions were conducted at room temperature in 1 mL total volume with 10 mM glycerol as starting substrate, between 1 and 14 nM of enzyme and 100 μM each of ATP and NAD. Samples were collected at various time points and analysed by LCMS (SIM monitoring for G3P and DHAP).
# G3P and DHAP were separated using a modification of the method described in Prieto-Blanc et al., (2010). Chromatographic conditions were SIELC ObeliscN column (250 mm) with 50% mobile phase A, 50% mobile phase B for 30 minutes. Mobile phase A: 0.1% formic acid; mobile phase b: methanol with 0.1% acetic acid. Mass spectrophotometric detection was conducted using API-ES mode with an Agilent 6120 Quadroploe LCMS. Glycerol-3-phosphate was quantified by selected ion monitoring of ion 171, DHAP quantified by selected ion monitoring of ion 169, the three aldol condensation products fructose-1,6-biphosphate, “AP” and “XP” were quantified by selected ion monitoring of […].
# [4] = test system: CaNOX; assay: Kinetics of NADH oxidase (NOX) with modified cofactor; format: biochemical, Clostridium aminoverlaricum; conditions: for Kcat / Km: cofactor as substrate of CaNOX
# Description: (§1) The relative enzyme activity for the NAD-dependant glycerol-3-phosphate dehydrogenase enzymes identified for DHAP synthesis was assessed with the modified N^6-2AE-NAD. Kinetic data for EcG3PD and CaNOX was also obtained. To determine the relative activities and kinetic enzyme efficiency, modified N^6-2AE-NAD was reduced enzymatically, separated from enzymes using ultrafiltration and the amount of N^6-2AE-NADH calculated based on the absorbance A340nm.
# [5] = target: T1, EcG3PD2; assay: Kinetics of glycerol-3-phosphate dehydrogenase with modified cofactor; format: biochemical, E. coli; conditions: EcG3PD, full kinetic analysis
# Description: as §1
# (§2) Glycerol-3-phosphate dehydrogenase assays were conducted essentially as described by (Sakasegawa et al., 2004). Kinetics were determined by varying the concentrations of NAD/NADP or glycerol-3-phosphate, whilst maintaining the other components in excess, and kinetic determinants were calculated using Hyper (J. S. Easterby, Liverpool University). Substrate and cofactor concentrations ranged from 0.1 to 10×Km.
# [6] = substrate: NC(=O)c1ccc[n+]([C@@H]2O[C@H](COP(=O)([O-])OP(=O)(O)OC[C@H]3O[C@@H](n4cnc5c(N)ncnc54)[C@H](O)[C@@H]3O)[C@@H](O)[C@H]2O)c1; assay: as above; format: biochemical, E. coli; conditions: other: cofactor as substrate of EcG3PD2
# Description: as §1, §2
# [7] = substrate: NCCNc1ncnc2c1ncn2[C@H]1O[C@@H](COP(=O)(O)OP(=O)(O)OC[C@H]2O[C@@H]([n+]3cccc(C(N)=O)c3)C(O)C2O)C(O)C1O; assay: as above; format: biochemical, E. coli; conditions: other: cofactor as substrate of EcG3PD2
# Description: as §1, §2
molecule,measurement,setting,value
"CCCCCCSCC(=O)C(F)(F)F [1,1,1-trifluoro-3-(thiohexyl)propan-2-one]",residual esterase activity,[1],completely abolished
same,residual esterase activity,[2],completely abolished
"Nc1ncnc2c1ncn2[C@@H]1O[C@H](COP(=O)(O)OP(=O)(O)OP(=O)(O)O)[C@@H](O)[C@H]1O [ATP, adenosine triphosphate]",turnover of ATP per hour,[3]; BiF1 plus BiF2 batch reaction,~40 h⁻¹
same,turnovers of ATP per batch reaction,"[3]; BiF1 plus BiF2 batch, 90 mM conversion of glycerol from 0.1 mM ATP starting concentration",~200
same,turnovers of ATP per batch reaction,"[3]; TriF1 plus TriF2 batch, 4.5 mM conversion of glycerol from 0.01 mM ATP starting concentration",~450
NC(=O)C1=CN([C@@H]2O[C@H](COP(=O)(O)OP(=O)(O)OC[C@H]3O[C@@H](n4cnc5c(N)ncnc54)[C@H](O)[C@@H]3O)[C@@H](O)[C@H]2O)C=CC1 [NADH],Kcat,[4],1204 ± 67.5 s⁻¹
same,Km,[4],204 ± 15.4 µM
"NCCNc1ncnc2c1ncn2[C@H]1O[C@@H](COP(=O)(O)OP(=O)(O)OC[C@H]2O[C@@H]([n+]3cccc(C(N)=O)c3)C(O)C2O)C(O)C1O (some centres unmarked) [N^6-2AE-NAD, N^6-(2-aminoethyl)-NAD^+]",activity retained with the modified cofactor compared with unmodified NAD,[5],78%
NCCNc1ncnc2c1ncn2[C@@H]1O[C@H](COP(=O)(O)OP(=O)(O)OC[C@H]2O[C@@H](N3C=CCC(C(N)=O)=C3)[C@H](O)[C@@H]2O)[C@@H](O)[C@H]1O [N^6-2AE-NADH],catalytic efficiency compared to NADH as substrate,[4]; NOX1 (CaNOX),reduction in the catalytic efficiency
same,Kcat,[4],343 ± 32.6 s⁻¹
same,Km,[4],215 ± 27.2 µM
B1,Km,[6],147.1 ± 25.4 µM
same,kcat,[6],66.7 ± 10.6 s⁻¹
same,kcat/Km,[6],450000 M⁻¹ s⁻¹
same,Km,[7],181.2 ± 37.5 µM
same,kcat,[7],63.5 ± 9.4 s⁻¹
same,kcat/Km,[7],350000 M⁻¹ s⁻¹
